Assay results as given in ChEMBL document CHEMBL1143112, “Three-component, one-pot synthesis of novel 2,4-substituted 5-azolylthiopyrimidine library for screening against anti-influenza virus A” (Bioorg Med Chem Lett, 2008).
In brackets after ≈: the same amount, converted by molar mass.

How the values were obtained:
[1] = Selectivity index, CC50 for dog MDCK cells to IC50 for influenza A virus H3N2; format: functional
[2] = Cytotoxicity against dog MDCK cells; format: cell-based, Canis lupus familiaris
Influenza B virus = test: Antiviral activity against influenza B virus expressed in dog MDCK cells assessed as reduction of virus-induced cytopathic effect; format: functional, organism-based

SMILES | CC50 [2] [µg/mL] | other results
Cn1ccnc1Sc1cnc(C(C)(C)C)nc1-c1ccccc1O | – | Selectivity index [1]: 9
CC(C)(C)c1nccc(-c2ccccc2O)n1 | 16200 (≈ 71.2 mM) | –
CC(C)(C)c1ncc(Sc2nc[nH]n2)c(-c2cc(Cl)ccc2O)n1 | 9580 (≈ 26.5 mM) | –
COc1ccc(O)c(-c2nc(SC)ncc2Sc2nccn2C)c1 | 7190 (≈ 19.9 mM) | –
NC(=O)c1ncn([C@@H]2O[C@H](CO)[C@@H](O)[C@H]2O)n1 [RIBAVIRIN] | – | IC50 (Influenza B virus): 4270 µg/mL (≈ 17.5 mM)
